The test addresses PAD4 (Homo sapiens (Human), UniProt Q9UM07). As to the kind of experiment: Ammonia release biochemical assay (citrullination).
Where [1] appears, read: read-out: NH3 release biochemical assay PAD4 IC50.
Setting [2] is: Table 1, class A, read-out: IC50 value, ammonia release biochemical assay.

Structures can show the parent of a compound that is named as a salt. Where two headings read alike, the source gives them in different places.

Sequence of PAD4 (Q9UM07 whole entry): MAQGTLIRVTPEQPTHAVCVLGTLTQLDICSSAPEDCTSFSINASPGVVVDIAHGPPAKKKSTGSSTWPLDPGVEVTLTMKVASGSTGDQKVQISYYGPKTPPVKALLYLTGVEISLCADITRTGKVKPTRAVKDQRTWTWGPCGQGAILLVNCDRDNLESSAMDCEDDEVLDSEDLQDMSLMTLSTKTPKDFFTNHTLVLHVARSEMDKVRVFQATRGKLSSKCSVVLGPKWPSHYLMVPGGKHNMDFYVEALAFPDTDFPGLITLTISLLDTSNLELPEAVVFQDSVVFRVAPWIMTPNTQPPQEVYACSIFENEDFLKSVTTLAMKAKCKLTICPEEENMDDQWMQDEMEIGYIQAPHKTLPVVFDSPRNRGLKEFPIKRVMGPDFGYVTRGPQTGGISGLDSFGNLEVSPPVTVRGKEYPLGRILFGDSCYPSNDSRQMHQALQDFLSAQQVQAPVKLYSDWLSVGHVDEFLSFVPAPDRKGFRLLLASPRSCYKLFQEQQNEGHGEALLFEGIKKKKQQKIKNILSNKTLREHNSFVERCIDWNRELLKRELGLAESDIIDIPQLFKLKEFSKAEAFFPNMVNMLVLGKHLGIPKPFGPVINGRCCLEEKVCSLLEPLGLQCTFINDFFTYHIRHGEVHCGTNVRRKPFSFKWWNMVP
Method: Ammonia Release Biochemical Assay
Citrullination assay was detected via ammonia release. […] The reaction was stopped after 60 min by addition of stop/detection buffer containing 50 mM EDTA, 2.6 mM of o-phthaladehyde and 2.6 mM DTT.

As a reminder, the IC50 is the concentration that inhibits the measured activity by half. On to `Cc1c(-c2c(Br)c3ccccc3n2CC2CC2)nc2cc(C(=O)N3CCC[C@@H](N)C3)ccn12` [Compound 1, (R)-(3-Aminopiperidin-1-yl)(2-(3-bromo-1-(cyclopropylmethyl)-1H-indol-2-yl)-3-methylimidazo[1,2-a]pyridin-7-yl)methanone], for which the IC50 under setting [1] was > 10000 nM.

Regarding `CCn1c(-c2nc3cc(C(=O)N4CCC[C@@H](N)C4)ccn3c2C)cc2ccccc21` [Compound 4, (R)-(3-Aminopiperidin-1-yl)(2-(1-ethyl-1H-indol-2-yl)-3-methylimidazo[1,2-a]pyridin-7-yl)methanone], the IC50 is ≤ 1000 nM under setting [2] and < 1000 nM under setting [1].

For `CCn1c(-c2nc3cc(C(=O)N4CCC[C@@H](N)C4)ccn3c2C)c(-c2ccccc2)c2ccccc21` [Compound 5, (R)-(3-Aminopiperidin-1-yl)(2-(1-ethyl-3-phenyl-1H-indol-2-yl)-3-methylimidazo[1,2-a]pyridin-7-yl)methanone], the concentration for half-maximal inhibition (IC50) under setting [1] was > 10000 nM.

Consider `CCn1c(-c2nc3cc(C(=O)N4CC[C@@H](N)C4)ccn3c2C)c(-c2ccccc2)c2ccccc21` [Compound 6, (R)-(3-Aminopyrrolidin-1-yl)(2-(1-ethyl-3-phenyl-1H-indol-2-yl)-3-methylimidazo[1,2-a]pyridin-7-yl)methanone], for which the IC50 under setting [1] is > 10000 nM.

Consider `CCn1c(-c2nc3cc(C(=O)N4CC[C@@H](N)C4)ccn3c2C)cc2ccccc21` [Compound 7, (R)-(3-Aminopyrrolidin-1-yl)(2-(1-ethyl-1H-indol-2-yl)-3-methylimidazo[1,2-a]pyridin-7-yl)methanone], for which the IC50 under setting [1] was > 10000 nM.

For `Cc1c(-c2cc3ccccc3n2CC2CC2)nc2cc(C(=O)N3CC[C@@H](N)C3)ccn12` [Compound 8, (R)-(3-Aminopyrrolidin-1-yl)(2-(1-(cyclopropylmethyl)-1H-indol-2-yl)-3-methylimidazo[1,2-a]pyridin-7-yl)methanone], the IC50 under setting [1] was > 10000 nM.

In the case of `Cc1c(-c2cc3ccccc3n2Cc2cccc(F)c2)nc2cc(C(=O)N3CCC[C@@H](N)C3)ccn12` [Compound 35, (R)-(3-aminopiperidin-1-yl)(2-(1-(3-fluorobenzyl)-1H-indol-2-yl)-3-methylimidazo[1,2-a]pyridin-7-yl)methanone], the IC50 under setting [1] is < 1000 nM.

As for `Cc1c(-c2cc3ccccc3n2Cc2ccoc2)nc2cc(C(=O)N3CCC[C@@H](N)C3)ccn12` [Compound 37, (R)-(3-aminopiperidin-1-yl)(2-(1-(furan-3-ylmethyl)-1H-indol-2-yl)-3-methylimidazo[1,2-a]pyridin-7-yl)methanone], the IC50 under setting [1] was < 1000 nM.

Regarding `Cc1csc(Cn2c(-c3nc4cc(C(=O)N5CCC[C@@H](N)C5)ccn4c3C)cc3ccccc32)n1` [Compound 41, (R)-(3-aminopiperidin-1-yl)(3-methyl-2-(1-((4-methylthiazol-2-yl)methyl)-1H-indol-2-yl)imidazo[1,2-a]pyridin-7-yl)methanone], the IC50 under setting [2] was ≤ 1000 nM and the IC50 under setting [1] is < 1000 nM.

Take `Cc1c(-c2cc3cccc(Cl)c3n2CC2CC2)nc2cc(C(=O)N3CCC[C@@H](N)C3)ccn12` [Compound 44, (R)-(3-aminopiperidin-1-yl)(2-(7-chloro-1-(cyclopropylmethyl)-1H-indol-2-yl)-3-methylimidazo[1,2-a]pyridin-7-yl)methanone]: the IC50 reads like this: under setting [2], ≤ 1000 nM; under setting [1], < 1000 nM.

Turning to `Cc1c(-c2cc3ccccc3n2Cc2ccc(F)cc2)nc2cc(C(=S)N3CCC[C@@H](N)C3)ccn12` [Compound 45, (R)-(3-aminopiperidin-1-yl)(2-(1-(4-fluorobenzyl)-1H-indol-2-yl)-3-methylimidazo[1,2-a]pyridin-7-yl)methanethione], the IC50 is, setting by setting: under setting [2], ≤ 1000 nM; under setting [1], < 1000 nM.

Regarding `Cc1c(-c2cc3ccccc3n2C)nc2cc(C(=O)N3CCC[C@@H](N)C3)ccn12` [Compound 46, (R)-(3-aminopiperidin-1-yl)(3-methyl-2-(1-methyl-1H-indol-2-yl)imidazo[1,2-a]pyridin-7-yl)methanone], the IC50 under setting [1] was > 10000 nM.

In the case of `COc1cccc2cc(-c3nc4cc(C(=O)N5CCC[C@@H](N)C5)ccn4c3C)n(CC3CC3)c12` [Compound 47, (R)-(3-aminopiperidin-1-yl)(2-(1-(cyclopropylmethyl)-7-methoxy-1H-indol-2-yl)-3-methylimidazo[1,2-a]pyridin-7-yl)methanone], the IC50 was ≤ 1000 nM under setting [2] and < 1000 nM under setting [1].

Turning to `Cc1ncc(Cn2c(-c3nc4cc(C(=O)N5CCC[C@@H](N)C5)ccn4c3C)cc3ccccc32)s1` [Compound 49, (R)-(3-aminopiperidin-1-yl)(3-methyl-2-(1-((2-methylthiazol-5-yl)methyl)-1H-indol-2-yl)imidazo[1,2-a]pyridin-7-yl)methanone], the IC50 reads like this: under setting [2], ≤ 1000 nM; under setting [1], < 1000 nM.

As to `COc1ccc2cc(-c3nc4cc(C(=O)N5CCC[C@@H](N)C5)ccn4c3C)n(Cc3cccnc3)c2c1` [Compound 51, (R)-(3-aminopiperidin-1-yl) (2-(6-methoxy-1-(pyridin-3-ylmethyl)-1H-indol-2-yl)-3-methylimidazo[1,2-a]pyridin-7-yl)methanone], the IC50 under setting [1] was < 1000 nM.

With `COc1cccc(Cn2c(-c3nc4cc(C(=O)N5CCC[C@@H](N)C5)ccn4c3C)cc3cc(F)ccc32)c1` [Compound 53, (R)-(3-aminopiperidin-1-yl)(2-(5-fluoro-1-(3-methoxybenzyl)-1H-indol-2-yl)-3-methylimidazo[1,2-a]pyridin-7-yl)methanone], under setting [1], the IC50 is < 1000 nM.

Turning to `Cc1c(-c2cc3ccc(F)cc3n2Cc2ccc(F)cc2)nc2cc(C(=O)N3CCC[C@@H](N)C3)ccn12` [Compound 54, (R)-(3-aminopiperidin-1-yl)(2-(6-fluoro-1-(4-fluorobenzyl)-1H-indol-2-yl)-3-methylimidazo[1,2-a]pyridin-7-yl)methanone], the IC50 under setting [1] was < 1000 nM.

On to `COc1cccc(Cn2c(-c3nc4cc(C(=O)N5CCC[C@@H](N)C5)ccn4c3C)cc3cc(F)c(F)cc32)c1` [Compound 55, (R)-(3-aminopiperidin-1-yl)(2-(5,6-difluoro-1-(3-methoxybenzyl)-1H-indol-2-yl)-3-methylimidazo[1,2-a]pyridin-7-yl)methanone], for which, under setting [1], the IC50 was < 1000 nM.

For the compound `Cc1c(-c2cc3ccccc3n2Cc2cncnc2)nc2cc(C(=O)N3CCC[C@@H](N)C3)ccn12` [Compound 58, (R)-(3-aminopiperidin-1-yl) (3-methyl-2-(1-(pyrimidin-5-ylmethyl)-1H-indol-2-yl)imidazo[1,2-a]pyridin-7-yl)methanone Trifluoroacetic Acid Salt], the half-inhibitory concentration (IC50) is, setting by setting: under setting [2], ≤ 1000 nM; under setting [1], < 1000 nM.

For `Cc1c(-c2cc3ccccc3n2CC(C)C)nc2cc(C(=O)N3CCC[C@@H](N)C3)ccn12` [Compound 60, (R)-(3-aminopiperidin-1-yl)(2-(1-isobutyl-1H-indol-2-yl)-3-methylimidazo[1,2-a]pyridin-7-yl)methanone], the IC50 under setting [1] is < 1000 nM.

Consider `Cc1c(-c2cc3ccccc3n2CC2CCC2)nc2cc(C(=O)N3CCC[C@@H](N)C3)ccn12` [Compound 61, (R)-(3-aminopiperidin-1-yl)(2-(1-(cyclobutylmethyl)-1H-indol-2-yl)-3-methylimidazo[1,2-a]pyridin-7-yl)methanone], for which the IC50 under setting [1] was < 1000 nM.

Regarding `Cc1c(-c2cc3ccccc3n2Cc2ncccc2F)nc2cc(C(=O)N3CCC[C@@H](N)C3)ccn12` [Compound 62, (R)-(3-aminopiperidin-1-yl)(2-(1-((3-fluoropyridin-2-yl)methyl)-1H-indol-2-yl)-3-methylimidazo[1,2-a]pyridin-7-yl)methanone], under setting [1], the IC50 was < 1000 nM.

Turning to `COc1ccc(Cn2c(-c3nc4cc(C(=O)N5CCC[C@@H](N)C5)ccn4c3C)cc3ccccc32)nc1` [Compound 63, (R)-(3-aminopiperidin-1-yl)(2-(1-((5-methoxypyridin-2-yl)methyl)-1H-indol-2-yl)-3-methylimidazo[1,2-a]pyridin-7-yl)methanone], under setting [1], the IC50 was < 1000 nM.

With `COCCn1c(-c2nc3cc(C(=O)N4CCC[C@@H](N)C4)ccn3c2C)cc2ccccc21` [Compound 64, (R)-(3-aminopiperidin-1-yl) (2-(1-(2-methoxyethyl)-1H-indol-2-yl)-3-methylimidazo[1,2-a]pyridin-7-yl)methanone], under setting [1], the IC50 is < 1000 nM.

`COc1ccc2cc(-c3nc4cc(C(=O)N5CCC[C@@H](N)C5)ccn4c3C)n(Cc3ccncc3)c2c1` [Compound 66, (R)-(3-aminopiperidin-1-yl)(2-(6-methoxy-1-(pyridin-4-ylmethyl)-1H-indol-2-yl)-3-methylimidazo[1,2-a]pyridin-7-yl)methanone]: the IC50 under setting [1] is > 10000 nM.

As for `CCn1c(-c2nc3cc(C(=O)N4CCC[C@@H](N)C4)ccn3c2C)cc2ccc(OC)cc21` [Compound 67, (R)-(3-aminopiperidin-1-yl)(2-(1-ethyl-6-methoxy-1H-indol-2-yl)-3-methylimidazo[1,2-a]pyridin-7-yl)methanone], the IC50 under setting [1] is < 1000 nM.

Take `Cc1c(-c2cc3ccc(F)cc3n2Cc2ccncc2)nc2cc(C(=O)N3CCC[C@@H](N)C3)ccn12` [Compound 68, (R)-(3-aminopiperidin-1-yl)(2-(6-fluoro-1-(pyridin-4-ylmethyl)-1H-indol-2-yl)-3-methylimidazo[1,2-a]pyridin-7-yl)methanone]: the IC50 under setting [1] was < 1000 nM.

As to `Cc1c(-c2cc3ccc(F)cc3n2Cc2cccnc2)nc2cc(C(=O)N3CCC[C@@H](N)C3)ccn12` [Compound 69, (R)-(3-aminopiperidin-1-yl)(2-(6-fluoro-1-(pyridin-3-ylmethyl)-1H-indol-2-yl)-3-methylimidazo[1,2-a]pyridin-7-yl)methanone], the IC50 under setting [1] was < 1000 nM.

For `COc1cccc(Cn2c(-c3nc4cc(C(=O)N5CCC[C@@H](N)C5)ccn4c3C)cc3ccc(F)cc32)c1` [Compound 70, (R)-(3-aminopiperidin-1-yl)(2-(6-fluoro-1-(3-methoxybenzyl)-1H-indol-2-yl)-3-methylimidazo[1,2-a]pyridin-7-yl)methanone], under setting [1], the half-maximal inhibitory concentration (IC50) is < 1000 nM.

Turning to `COc1ccc(Cn2c(-c3nc4cc(C(=O)N5CCC[C@@H](N)C5)ccn4c3C)cc3ccc(F)cc32)cc1` [Compound 71, (R)-(3-aminopiperidin-1-yl)(2-(6-fluoro-1-(4-methoxybenzyl)-1H-indol-2-yl)-3-methylimidazo[1,2-a]pyridin-7-yl)methanone], the half-maximal inhibitory concentration (IC50) under setting [1] is < 1000 nM.
